Laboratory results taken from the NIST ThermoML archive (doi:10.1016/j.fluid.2018.04.007).

What was measured:
[1] = refractive index (Na D-line) (dimensionless); xn = mol fraction of the nth substance listed; details: 101 kPa, Liquid, Standard Abbe refractometry
[2] = relative permittivity at various frequencies (dimensionless); xn = mol fraction of the nth substance listed; details: 101 kPa, Liquid, Frequency=1 MHz, Parallel plate capacitor

CCCCCCN [1-hexanamine] + CO
Details | refractive index, 293.15 K | refractive index, 298.15 K | refractive index, 303.15 K | relative permittivity, 293.15 K | relative permittivity, 298.15 K
[1], x2 = 0 | 1.41808 | 1.41563 | 1.41321 | – | –
[1], x2 = 0.0534 | 1.41741 | 1.41499 | 1.41261 | – | –
[1], x2 = 0.0942 | 1.41681 | 1.41442 | 1.41204 | – | –
[1], x2 = 0.1871 | 1.41513 | 1.41282 | 1.4104 | – | –
[1], x2 = 0.2977 | 1.4125 | 1.41017 | 1.40773 | – | –
[1], x2 = 0.4039 | 1.40889 | 1.40657 | 1.40412 | – | –
[1], x2 = 0.4917 | 1.4048 | 1.40243 | 1.4 | – | –
[1], x2 = 0.5977 | 1.3979 | 1.3955 | 1.39316 | – | –
[1], x2 = 0.6997 | 1.38836 | 1.38615 | 1.38372 | – | –
[1], x2 = 0.7995 | 1.37505 | 1.37296 | 1.37067 | – | –
[1], x2 = 0.8475 | 1.36685 | 1.36479 | 1.36257 | – | –
[1], x2 = 0.8978 | 1.35657 | 1.3546 | 1.3524 | – | –
[1], x2 = 0.9496 | 1.34385 | 1.34182 | 1.33968 | – | –
[1], x2 = 0.9834 | 1.33399 | 1.33194 | 1.3298 | – | –
[2], x2 = 0 | – | – | – | 3.964 | 3.904
[2], x2 = 0.0534 | – | – | – | 4.367 | 4.293
[2], x2 = 0.122 | – | – | – | 4.964 | 4.87
[2], x2 = 0.1906 | – | – | – | 5.681 | 5.564
[2], x2 = 0.3081 | – | – | – | 7.244 | 7.085
[2], x2 = 0.395 | – | – | – | 8.783 | 8.557
[2], x2 = 0.4982 | – | – | – | 11.109 | 10.806
[2], x2 = 0.6035 | – | – | – | 14.21 | 13.794
[2], x2 = 0.7016 | – | – | – | 17.646 | 17.127
[2], x2 = 0.8002 | – | – | – | 21.864 | 21.254
[2], x2 = 0.8485 | – | – | – | 24.251 | 23.597
[2], x2 = 0.8984 | – | – | – | 26.928 | 26.203
[2], x2 = 0.9496 | – | – | – | 30.037 | 29.216
[2], x2 = 0.9834 | – | – | – | 32.343 | 31.44
